Test results taken from ChEMBL document CHEMBL1221329, “Identification of a novel NR2B-selective NMDA receptor antagonist using a virtual screening approach” (Bioorg Med Chem Lett, 2010).

Experiments:
[1] = biological target: T1, Glutamate NMDA receptor; GRIN1/GRIN2B (Homo sapiens, UniProt Q05586+Q13224); assay: Ratio of compound IC50 to ifenprodil IC50 for wild type NR1/NR2B receptor by radioligand binding assay; format: protein-complex assay
[2] = Antagonist activity at NR1/NR2B NTD truncated mutant receptor expressed in Xenopus oocytes assessed as ratio of residual current induced by agonist in presence of compound to residual current induced by agonist alone at 10 uM by two-electrode voltage-clamp method; format: functional, Oocyte
[3] = biological target: T1, Glutamate NMDA receptor; GRIN1/GRIN2B; assay: Antagonist activity at wild type NR1/NR2B receptor expressed in Xenopus oocytes assessed as ratio of residual current induced by agonist in presence of compound to residual current induced by agonist alone at 10 uM by two-electrode voltage-clamp method; format: functional, cell-based; settings: Oocyte
[4] = biological target: T2, Glutamate NMDA receptor; GRIN1/GRIN2A (Homo sapiens) (UniProt Q05586+Q12879); assay: Antagonist activity at wild type NR1/NR2A receptor expressed in Xenopus oocytes assessed as ratio of residual current induced by agonist in presence of compound to residual current induced by agonist alone at 10 uM by two-electrode voltage-clamp method; format: functional, cell-based; settings: Oocyte
[5] = Antagonist activity at NR1/NR2B NTD truncated mutant receptor expressed in Xenopus oocytes assessed as inhibition of agonist-induced current amplitude at 10 uM by two-electrode voltage-clamp method; format: functional; settings: Xenopus laevis, Oocyte
[6] = biological target: T1, Glutamate NMDA receptor; GRIN1/GRIN2B; assay: Antagonist activity at wild type NR1/NR2B receptor expressed in Xenopus oocytes assessed as inhibition of agonist-induced current amplitude by two-electrode voltage-clamp method; format: functional, cell-based, Oocyte
[7] = biological target: T2, Glutamate NMDA receptor; GRIN1/GRIN2A (Homo sapiens); assay: Antagonist activity at wild type NR1/NR2A receptor expressed in Xenopus oocytes assessed as inhibition of agonist-induced current amplitude at 10 uM by two-electrode voltage-clamp method; format: functional, cell-based; settings: Oocyte
[8] = biological target: T1, Glutamate NMDA receptor; GRIN1/GRIN2B; assay: Ratio of compound IC50 to ifenprodil IC50 for wild type NR1/NR2B receptor expressed in Xenopus oocytes; format: cell-based; settings: Oocyte
[9] = biological target: T1, Glutamate NMDA receptor; GRIN1/GRIN2B; assay: Antagonist activity at wild type NR1/NR2B receptor expressed in Xenopus oocytes assessed as inhibition of agonist-induced current amplitude at 10 uM by two-electrode voltage-clamp method; format: functional, cell-based; settings: Oocyte

| SMILES | Ratio IC50 [1] | Ratio [2] | Ratio [3] | Ratio [4] | other results |
| --- | --- | --- | --- | --- | --- |
| Nc1ccc(C#CCCN2CCC(Cc3ccccc3)CC2)cc1 | 4 |  |  |  |  |
| O=C1N=C(N2CCN(Cc3ccccc3)CC2)S/C1=C\c1ccccc1O |  | 0.96 | 0.96 |  |  |
| COc1cc(/C=C2\SC(N3CCN(c4cccc(C)c4)CC3)=NC2=O)ccc1O |  | 0.96 | 0.95 |  |  |
| O=C1N=C(N2CCN(Cc3ccccc3)CC2)S/C1=C/c1ccc(O)cc1 |  | 0.96 | 0.15 | 0.9 | inhibition at 10 µM [5]: 6%; IC50 [6]: 1800 nM; inhibition [7]: 6% |
| O=C1N=C(N2CCN(Cc3ccccc3)CC2)S/C1=C\c1ccc(O)cc1 |  | 0.96 | 0.22 | 0.94 | Ratio IC50 [8]: 10; inhibition at 10 µM [5]: 4%; inhibition [9]: 0.92%; IC50 [6]: 2700 nM; inhibition [7]: 4% |
| Oc1nc2cc(C#CCN3CCC(=Cc4ccc(F)cc4)CC3)ccc2[nH]1 | 2.5 |  |  |  |  |
| Oc1ccc(CCCCN2CCc3c([nH]c4ccccc34)C2)cc1 | 5 |  |  |  |  |
| O=C1N=C(N2CCN(Cc3ccccc3)CC2)S/C1=C\c1ccccc1 |  | 0.97 | 0.95 |  |  |
| N=C1/C(=C/c2ccc(O)cc2)C(=O)N=C2SC(Cc3ccc(Cl)cc3)=NN12 |  | 0.97 | 0.9 | 0.99 | inhibition [9]: < 20% |
| O=c1[nH]c2cc([S+]([O-])CCN3CCC(Cc4ccc(F)cc4)CC3)ccc2o1 (stereo unspecified) | 0.03 |  |  |  |  |
| CCN(CC)CCCOC(=O)c1ccc(O)cc1O |  | 0.97 | 0.94 | 0.97 | inhibition [9]: < 20% |
| CCN1CCN(C2=NC(=O)/C(=C/c3ccc(O)cc3)S2)CC1 |  | 0.96 | 0.93 |  |  |
| O=C1CNC(=O)N1CCCN1CCC(Cc2ccccc2)CC1 | 250 |  |  |  |  |
| O=C1CNC(=O)N1CCCCCN1CCC(Cc2ccccc2)CC1 | 440 |  |  |  |  |
| O=C1N=C(N2CCN(c3ccccc3)CC2)S/C1=C/c1ccc(O)cc1 |  | 0.96 | 0.74 |  |  |
| Cn1c(O)nc2cc(C#CCN3CCC(Cc4ccccc4)CC3)ccc21 | 560 |  |  |  |  |
| Oc1nc2cc(C#CCN3CCC(Cc4ccc(F)cc4)CC3)c[nH]c-2n1 | 0.03 |  |  |  |  |
| O=C1N=C(N2CCN(c3ccccc3)CC2)S/C1=C\c1ccc(O)cc1 |  | 0.96 | 0.75 | 0.88 | inhibition at 10 µM [5]: 25%; inhibition [7]: 25% |
| O=c1[nH]c2ncc(C#CCN3CCC(Cc4ccccc4)CC3)cc2o1 | 0.45 |  |  |  |  |

| SMILES | Ratio IC50 [1] | Ratio [2] | Ratio [3] | Ratio [4] | other results |
| --- | --- | --- | --- | --- | --- |
| CC(=O)Nc1ccc2c(c1)CN(Cc1ccc(Cl)cc1)CO2 |  | 0.88 | 0.83 | 0.77 | inhibition [9]: < 20% |
| Oc1ccc2c(c1)OC[C@@H](N1CCC(O)(c3ccccc3)CC1)[C@H]2O | 11 |  |  |  |  |
| C[C@@H](CN1CCC(Cc2ccccc2)CC1)[C@@H](O)c1ccc(O)cc1 | 0.3 |  |  |  |  |
| COc1cc(/C=C2/SC(N3CCN(Cc4ccccc4)CC3)=NC2=O)ccc1O |  | 0.97 | 0.61 |  | IC50 [6]: 11000 nM |
| O=C1N=C(N2CCN(c3ccc(F)cc3)CC2)S/C1=C\c1ccc(O)cc1 |  | 0.96 | 0.75 |  | IC50 [6]: 13000 nM |
| Oc1nc2cc(C#CCN3CCC(Cc4ccccc4)CC3)ccc2[nH]1 | 0.048 |  |  |  |  |
| Oc1ccc2[nH]c3c(c2c1)CN(CCCCc1ccccc1)CC3 | 0.45 |  |  |  |  |
| C(#Cc1ccccc1)CCN1CCC(Cc2ccccc2)CC1 | 43 |  |  |  |  |
| COc1cc(/C=C2\SC(N3CCN(c4ccc(C)c(Cl)c4)CC3)=NC2=O)ccc1O |  | 0.97 | 0.9 |  |  |
| C(#Cc1ccc2[nH]ccc2c1)CN1CCC(=Cc2ccccc2)CC1 | 140 |  |  |  |  |
| O=C(CN1CCc2[nH]c3ccccc3c2C1)c1c[nH]c2ccccc12 |  | 0.94 | 0.9 | 0.96 | inhibition [9]: < 20% |
| O=C1N=C(N2CCN(Cc3ccccc3)CC2)S/C1=C\c1ccc(O)cc1O |  | 0.92 | 0.18 | 0.92 | inhibition at 10 µM [5]: 6%; IC50 [6]: 1650 nM; inhibition [7]: 6% |
| COc1cc(CN2CCN(Cc3cccc(C)c3)CC2)cc(OC)c1O |  | 0.97 | 0.96 | 0.98 | inhibition [9]: < 20% |
| CC(=O)Nc1ccc(N2C(=O)C[C@@H](N3CCc4[nH]c5ccccc5c4C3)C2=O)cc1 |  | 0.98 | 0.97 | 0.98 | inhibition [9]: < 20% |
| COc1cc(/C=C2\SC(Nc3cccc(Cl)c3Cl)=NC2=O)ccc1O |  | 0.96 | 0.925 | 0.97 | inhibition [9]: < 20% |
| Cc1nnc(SCCCN2CCC(Cc3ccccc3)CC2)s1 | 58 |  |  |  |  |
| COc1cc(/C=C2\SC(N3CCN(c4ccc(C)cc4)CC3)=NC2=O)ccc1O |  | 0.97 | 0.95 |  |  |
| O=C1N=C(N2CCN(c3cccc(Cl)c3)CC2)S/C1=C\c1ccc(O)cc1 |  | 0.92 | 0.94 | 0.9 |  |
| Nc1ccc(N2CCN(Cc3ccccc3Cl)CC2)cc1 |  | 0.98 | 0.98 | 0.97 | inhibition [9]: < 20% |
